Assay results: patent publication US20240190892A1, “PLASMA KALLIKREIN INHIBITORS” (Merck Sharp & Dohme LLC, priority 2021, published 2024)

Legend:
[1] = target: Human plasma kallikrein (Homo sapiens (Human), UniProt P03952); assay: Plasma Kallikrein Assay; type: biochemical; conditions: purified Human plasma kallikrein 0.5 nM, substrate Acetyl-K-P-R-AFC, pH 7.4; read-out: PKal IC50
Method: (§1) The effectiveness of a compound of the present invention as an inhibitor of plasma kallikrein can be determined using a relevant purified serine protease, and an appropriate synthetic substrate. The rate of hydrolysis of the chromogenic or fluorogenic substrate by the relevant serine protease was measured both in the absence and presence of compounds of the present invention. Assays were conducted at rt or at 37° C. […] A decrease in the rate of fluorescence change in the presence of inhibitor is indicative of enzyme inhibition. Such methods are known to one skilled in the art. The results of this assay are expressed as the half-maximal inhibitory concentrations (IC50), or the inhibitory constant, Ki.
Plasma kallikrein determinations were made in 50 mM HEPES buffer at pH 7.4 containing 150 mM NaCl, 5 mM CaCl2, and 0.1% PEG 8000 (polyethylene glycol; Fisher Scientific). Determinations were made using purified Human plasma kallikrein at a final concentration of 0.5 nM (Enzyme Research Laboratories) and the synthetic substrate, Acetyl-K-P-R-AFC (Sigma #C6608) at a concentration of […].
Activity assays were performed by diluting a stock solution of substrate at least tenfold to a final concentration ≤0.2 Km into a solution containing enzyme or enzyme equilibrated with inhibitor. Times required to achieve equilibration between enzyme and inhibitor were determined in control experiments. The reactions were performed under linear progress curve conditions and fluorescence increase measured at 405 Ex/510 Em nm. Values were converted to percent inhibition of the control reaction (after subtracting 100% Inhibition value). IC50 was determined by inflection point from a four parameter logistic curve fit. Ki was calculated using the Cheng Prusoff equation, Ki=IC50/(1+[S]/Km)).

[2] = target: Coagulation factor XIa (Homo sapiens (Human), UniProt P03951); assay: Factor XIa Assay; type: biochemical; conditions: human factor XIa 0.04 nM, substrate GPR-AFC, 30 min pre-incubation at 25° C., pH 7.4; read-out: FXIa IC50
Chain of Coagulation factor XIa (P03951 388-625 limits assumed): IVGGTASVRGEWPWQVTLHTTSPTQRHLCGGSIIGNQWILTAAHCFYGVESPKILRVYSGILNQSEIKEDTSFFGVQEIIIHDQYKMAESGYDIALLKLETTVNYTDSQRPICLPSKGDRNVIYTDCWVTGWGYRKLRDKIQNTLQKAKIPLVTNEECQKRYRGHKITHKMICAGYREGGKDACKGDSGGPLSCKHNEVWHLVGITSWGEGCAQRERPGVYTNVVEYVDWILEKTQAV
Chain of Coagulation factor XIa (P03951 19-387 partner limits assumed): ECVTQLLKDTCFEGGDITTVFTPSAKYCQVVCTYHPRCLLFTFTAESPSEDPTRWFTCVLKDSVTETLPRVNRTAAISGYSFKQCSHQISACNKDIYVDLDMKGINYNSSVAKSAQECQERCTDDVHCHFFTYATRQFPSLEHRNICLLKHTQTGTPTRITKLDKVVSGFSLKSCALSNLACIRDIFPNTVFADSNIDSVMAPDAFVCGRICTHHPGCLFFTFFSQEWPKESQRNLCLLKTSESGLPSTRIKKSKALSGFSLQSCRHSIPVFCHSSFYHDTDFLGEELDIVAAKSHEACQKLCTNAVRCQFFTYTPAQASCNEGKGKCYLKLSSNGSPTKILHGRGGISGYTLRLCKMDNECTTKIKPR
Method: as §1, with “Coagulation factor XIa” for “plasma kallikrein”
Compounds were pre-incubated for 30 min at 25° C. with human (0.04 nM) factor XIa in 50 mM HEPES buffer with 150 mM sodium chloride, 5 mM calcium chloride, 0.1% PEG 8000, pH 7.4. factor XIa enzymatic activity was determined by addition of the substrate glycine-proline-arginine-7-amido-4-trifluoromethylcoumarin (GPR-AFC) and measurement of the fluorescence at 400/505 nm after a 60 min incubation at 25° C. The % inhibition for each data point was calculated from the data and analyzed using the log (inhibitor) vs. response four parameters equation to determine the half-maximal inhibitory concentrations (IC50). The IC50 were converted to equilibrium inhibitory constants (Ki) using the Cheng-Prusoff equation.

Chain of Human plasma kallikrein (P03952 391-638 limits assumed): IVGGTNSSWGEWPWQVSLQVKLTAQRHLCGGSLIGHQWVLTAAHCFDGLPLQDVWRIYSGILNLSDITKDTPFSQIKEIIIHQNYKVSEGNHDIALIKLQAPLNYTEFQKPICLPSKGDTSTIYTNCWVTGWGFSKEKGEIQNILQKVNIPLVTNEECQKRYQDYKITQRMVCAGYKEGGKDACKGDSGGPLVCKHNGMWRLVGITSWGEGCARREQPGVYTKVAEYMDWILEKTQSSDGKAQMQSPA
Chain of Human plasma kallikrein (P03952 20-390 partner limits assumed): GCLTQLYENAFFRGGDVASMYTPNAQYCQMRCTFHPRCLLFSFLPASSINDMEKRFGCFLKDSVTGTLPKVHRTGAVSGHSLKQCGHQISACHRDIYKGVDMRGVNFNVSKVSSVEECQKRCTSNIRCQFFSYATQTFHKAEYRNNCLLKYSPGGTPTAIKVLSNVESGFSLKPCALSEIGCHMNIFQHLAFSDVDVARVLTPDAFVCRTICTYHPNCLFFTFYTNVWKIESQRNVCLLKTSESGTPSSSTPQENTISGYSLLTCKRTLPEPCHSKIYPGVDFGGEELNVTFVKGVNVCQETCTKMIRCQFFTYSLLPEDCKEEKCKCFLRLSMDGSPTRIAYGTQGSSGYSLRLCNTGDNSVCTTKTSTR

Row | IC50 [1] | IC50 [2] | Structure (SMILES)
1 | 0.0143 µM | 10 µM | COCC1CN(c2ccc(CNC(=O)c3cnnc(N4CC[C@]5(C4)OC(=O)Nc4ccc(Cl)c(F)c45)c3)cn2)C1 [Example 27, (S)-6-(6-Chloro-5-fluoro-2-oxo-1,2-dihydrospiro[benzo[d][1,3]oxazine-4,3′-pyrrolidin]-1′-yl)-N-((6-(3-(methoxymethyl)azetidin-1-yl)pyridin-3-yl)methyl)pyridazine-4-carboxamide]
2 | 0.0039 µM | 10 µM | CN1CCCC1c1ccc(CNC(=O)c2cnnc(N3CC[C@]4(C3)OC(=O)Nc3ccc(Cl)c(F)c34)c2)cn1 (stereo in doubt) [Example 11, (S)-6-(6-Chloro-5-fluoro-2-oxo-1,2-dihydrospiro[benzo[d][1,3]oxazine-4,3′-pyrrolidin]-1′-yl)-N-((6-(1-methylpyrrolidin-2-yl)pyridin-3-yl)methyl)pyridazine-4-carboxamide]
3 | 0.0086 µM | 10 µM | O=C1Nc2ccc(Cl)c(F)c2[C@]2(CCN(c3cncc(C(=O)NCc4ccc5c(n4)NCCC5)n3)C2)O1 [Example 31, (S)-6-(6-Chloro-5-fluoro-2-oxo-1,2-dihydrospiro[benzo[d][1,3]oxazine-4,3′-pyrrolidin]-1′-yl)-N-((5,6,7,8-tetrahydro-1,8-naphthyridin-2-yl)methyl)pyrazine-2-carboxamide]
4 | 0.0266 µM | 10 µM | N#CC1(F)CN(Cc2ccc(CNC(=O)c3cnnc(N4CC[C@]5(C4)OC(=O)Nc4ccc(Cl)c(F)c45)c3)cc2)C1 [Example 50, (S)-6-(6-Chloro-5-fluoro-2-oxo-1,2-dihydrospiro[benzo[d][1,3]oxazine-4,3′-pyrrolidin]-1′-yl)-N-(4-((3-cyano-3-fluoroazetidin-1-yl)methyl)benzyl)pyridazine-4-carboxamide]
5 | 0.0023 µM | 10 µM | Cc1cnn(Cc2ccc(CNC(=O)c3cncc(N4CC[C@]5(C4)OC(=O)Nc4ccc(Cl)c(F)c45)n3)cn2)c1 [Example 21, (S)-6-(6-Chloro-5-fluoro-2-oxo-1,2-dihydrospiro[benzo[d][1,3]oxazine-4,3′-pyrrolidin]-1′-yl)-N-((6-((4-methyl-1H-pyrazol-1-yl)methyl)pyridin-3-yl)methyl)pyrazine-2-carboxamide]
6 | 0.0816 µM | 10 µM | CN1CC(F)(F)CC1c1ccc(CNC(=O)c2cnnc(N3CC[C@]4(C3)OC(=O)Nc3ccc(Cl)c(F)c34)c2)cn1 (stereo in doubt) [Example 13, (S)-6-(6-Chloro-5-fluoro-2-oxo-1,2-dihydrospiro[benzo[d][1,3]oxazine-4,3′-pyrrolidin]-1′-yl)-N-((6-(4,4-difluoro-1-methylpyrrolidin-2-yl)pyridin-3-yl)methyl)pyridazine-4-carboxamide]
7 | 0.003 µM | 5.65 µM | O=C1Nc2ccc(Cl)c(F)c2[C@]2(CCN(c3cc(C(=O)NCc4ccc(N5CC[C@H](F)C5)nc4)cnn3)C2)O1 [Example 5, (S)-6-(6-Chloro-5-fluoro-2-oxo-1,2-dihydrospiro[benzo[d][1,3]oxazine-4,3′-pyrrolidin]-1′-yl)-N-((6-((S)-3-fluoropyrrolidin-1-yl)pyridin-3-yl)methyl)pyridazine-4-carboxamide]
8 | 0.0019 µM | 10 µM | CN1CCN(c2ccc(CNC(=O)c3cnnc(N4CC[C@]5(C4)OC(=O)Nc4ccc(Cl)c(F)c45)c3)cn2)CC1 [Example 28, (S)-6-(6-Chloro-5-fluoro-2-oxo-1,2-dihydrospiro[benzo[d][1,3]oxazine-4,3′-pyrrolidin]-1′-yl)-N-((6-(4-methylpiperazin-1-yl)pyridin-3-yl)methyl)pyridazine-4-carboxamide]
9 | 0.038 µM | 10 µM | CCC(NCc1ccc(CNC(=O)c2cnnc(N3CC[C@]4(C3)OC(=O)Nc3ccc(Cl)c(F)c34)c2)cc1)C(F)(F)F (stereo partly drawn) [Example 46, (S)-6-(6-Chloro-5-fluoro-2-oxo-1,2-dihydrospiro[benzo[d][1,3]oxazine-4,3′-pyrrolidin]-1′-yl)-N-(4-(((1,1,1-trifluorobutan-2-yl)amino)methyl)benzyl) pyridazine-4-carboxamide]
10 | 0.0209 µM | 10 µM | O=C1Nc2ccc(Cl)c(F)c2[C@]2(CCN(c3cncc(C(=O)NCc4ccc5ccc(=O)oc5c4)n3)C2)O1 [Example 30, (S)-6-(6-Chloro-5-fluoro-2-oxo-1,2-dihydrospiro[benzo[d][1,3]oxazine-4,3′-pyrrolidin]-1′-yl)-N-((2-oxo-2H-chromen-7-yl)methyl)pyrazine-2-carboxamide]
11 | 0.0013 µM | 10 µM | Cc1cnn(Cc2ccc(CNC(=O)c3cncc(N4CC[C@]5(C4)OC(=O)Nc4ccc(Cl)c(F)c45)c3)cn2)c1 [Example 20, (S)-5-(6-Chloro-5-fluoro-2-oxo-1,2-dihydrospiro[benzo[d][1,3]oxazine-4,3′-pyrrolidin]-1′-yl)-N-((6-((4-methyl-1H-pyrazol-1-yl)methyl)pyridin-3-yl)methyl)nicotinamide]
12 | 0.0031 µM | 10 µM | Cc1cnn(Cc2ccc(CNC(=O)c3cncc(N4CC[C@]5(C4)OC(=O)Nc4ccc(Cl)c(F)c45)c3)cc2)c1 [Example 26, (S)-5-(6-Chloro-5-fluoro-2-oxo-1,2-dihydrospiro[benzo[d][1,3]oxazine-4,3′-pyrrolidin]-1′-yl)-N-(4-((4-methyl-1H-pyrazol-1-yl)methyl)benzyl)nicotinamide]
13 | 0.0089 µM | 10 µM | N#CCCN(Cc1ccc(CNC(=O)c2cnnc(N3CC[C@]4(C3)OC(=O)Nc3ccc(Cl)c(F)c34)c2)cc1)C1CC1 [Example 49, (S)-6-(6-Chloro-5-fluoro-2-oxo-1,2-dihydrospiro[benzo[d][1,3]oxazine-4,3′-pyrrolidin]-1′-yl)-N-(4-(((2-cyanoethyl)(cyclopropyl)amino)methyl)benzyl)pyridazine-4-carboxamide]
14 | 0.0163 µM | 10 µM | O=C1Nc2ccc(Cl)c(F)c2[C@]2(CCN(c3cc(C(=O)NCc4ccc(Cn5ccccc5=O)cc4)cnn3)C2)O1 [Example 17, (S)-6-(6-Chloro-5-fluoro-2-oxo-1,2-dihydrospiro[benzo[d][1,3]oxazine-4,3′-pyrrolidin]-1′-yl)-N-(4-((2-oxopyridin-1(2H)-yl)methyl)benzyl)pyridazine-4-carboxamide]
15 | 0.0136 µM | 10 µM | Cc1cnn(Cc2ccc(CNC(=O)c3ccnc(N4CC[C@]5(C4)OC(=O)Nc4ccc(Cl)c(F)c45)n3)cc2)c1 [Example 24, (S)-2-(6-Chloro-5-fluoro-2-oxo-1,2-dihydrospiro[benzo[d][1,3]oxazine-4,3′-pyrrolidin]-1′-yl)-N-(4-((4-methyl-1H-pyrazol-1-yl)methyl)benzyl)pyrimidine-4-carboxamide]
16 | 0.0025 µM | 10 µM | CN1CCCC1c1ccc(CNC(=O)c2cnnc(N3CC[C@]4(C3)OC(=O)Nc3ccc(Cl)c(F)c34)c2)cc1 (stereo in doubt) [Example 10, (S)-6-(6-Chloro-5-fluoro-2-oxo-1,2-dihydrospiro[benzo[d][1,3]oxazine-4,3′-pyrrolidin]-1′-yl)-N-(4-(1-methylpyrrolidin-2-yl)benzyl)pyridazine-4-carboxamide]
17 | 0.005 µM | 10 µM | O=C1Nc2ccc(Cl)c(F)c2[C@]2(CCN(c3cc(C(=O)NCc4ccc(N5CCOCC5)nc4)cnn3)C2)O1 [Example 29, (S)-6-(6-Chloro-5-fluoro-2-oxo-1,2-dihydrospiro[benzo[d][1,3]oxazine-4,3′-pyrrolidin]-1′-yl)-N-((6-morpholinopyridin-3-yl)methyl)pyridazine-4-carboxamide]

Row | Structure (SMILES) | IC50 [1] | IC50 [2]
18 | CN1CC(F)(F)C[C@H]1c1ccc(CNC(=O)c2cnnc(N3CCC4(C3)OC(=O)Nc3ccc(Cl)c(F)c34)c2)cc1 (stereo partly drawn) [Example 12, (S)-6-(6-Chloro-5-fluoro-2-oxo-1,2-dihydrospiro[benzo[d][1,3]oxazine-4,3′-pyrrolidin]-1′-yl)-N-(4-(4,4-difluoro-1-methylpyrrolidin-2-yl)benzyl)pyridazine-4-carboxamide] | 0.0396 µM | 10 µM
